Patent publication US9598433B2, “Hepatitis C virus inhibitors” (BRISTOL-MYERS SQUIBB COMPANY, priority 2012, dated 2017)
pEC50: −log10 of the molar value. Where two headings read alike, the source gives them in different places.

Experiments:
[1] = system: HCV genotype 1a (H77 strain) replicon in HUH-7 cells; assay: HCV replicon luciferase reporter assay, genotype 1a; type: cell-based; details: Hepatitis C virus, 72 h, genotype 1a replicon, 3 days incubation
Procedure, shortened: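 Stable HUH-7 line carrying luciferase-reporter genotype 1a (H77) replicon with adaptive NS3 P1496L and NS5A S2204I mutations; 3.0×10^3 cells/well in 4% FCS, 0.5% DMSO, twenty-point 3-fold titration, 3 days at 37 °C. Renilla luminescence with 7.5 μM EnduRen; EC50 by four-parameter logistic fit; CC50 by multiplexed Cell Titer-Blue.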

[2] = system: HCV genotype 1b (Con1) replicon in HUH-7 cells; assay: HCV replicon luciferase reporter assay, genotype 1b; type: cell-based; details: Hepatitis C virus, 72 h, genotype 1b replicon, 3 days incubation
Procedure, shortened: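 Replication was read as Renilla luciferase signal, using 7.5 μM EnduRen substrate with a 2-h incubation at 37 °C. The signal came from a HUH-7 line constitutively expressing a luciferase-tagged 1b (Con1) replicon carrying S1179I.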

| Structure (SMILES) | pEC50 ([1]; read-out: LE_1a (EC50, range)) | pEC50 ([2]; read-out: LE_1b (EC50, range)) | pEC50 ([1]; read-out: LE_1a (EC50)) | pEC50 ([2]; read-out: LE_1b (EC50)) |
| --- | --- | --- | --- | --- |
| CCOc1cc2ccnc(O[C@@H]3C[C@H]4C(=O)N[C@]5(C(=O)NS(=O)(=O)C6(C)CC6)C[C@H]5/C=C\CC[C@@H](C)O[C@@H](CC)[C@H](NC(=O)OC(C)(C)C(C)(F)F)C(=O)N4C3)c2cc1F [Compound 2607, 3,3-difluoro-2-methylbutan-2-yl ((2R,6S,7S,9R,13 aS,14aR,16aS,Z)-2-((6-ethoxy-7-fluoroisoquinolin-1-yl)oxy)-7-ethyl-9-methyl-14a-(((1-methylcyclopropyl)sulfonyl)carbamoyl)-5,16-dioxo-2,3,5,6,7,9,10,11,13a,14,14a,15,16,16a-tetradecahydro-1H-cyclopropa[i]pyrrolo[1,2-e][1,5,8]oxadiazacyclopentadecin-6-yl)carbamate] | 9.00 to 9.29 | 9.30 to 10.00 |  |  |
| CC[C@@H]1O[C@H](C)CC/C=C\[C@@H]2C[C@@]2(C(=O)NS(=O)(=O)C2(C)CC2)NC(=O)[C@@H]2C[C@@H](Oc3ncc(OC)c4ccc(F)cc34)CN2C(=O)[C@H]1NC(=O)OC(C)(C)C(F)(F)F [Compound 2606] | 9.00 to 9.29 | 9.30 to 10.00 |  |  |
| CC[C@@H]1O[C@H](C)CC/C=C\[C@@H]2C[C@@]2(C(=O)NS(=O)(=O)C2(C)CC2)NC(=O)[C@@H]2C[C@@H](Oc3cc(OC)nc4cc(OC)ccc34)CN2C(=O)[C@H]1NC(=O)OC(C)(C)C(C)(F)F [Compound 1020, 3,3-difluoro-2-methylbutan-2-yl ((2R,6S,7S,9R,13aS,14aR,16aS,Z)-2-((2,7-dimethoxyquinolin-4-yl)oxy)-7-ethyl-9-methyl-14a-(((1-methylcyclopropyl)sulfonyl)carbamoyl)-5,16-dioxo-2,3,5,6,7,9,10,11,13a,14,14a,15,16,16a-tetradecahydro-1H-cyclopropa[i]pyrrolo[1,2-e][1,5,8]oxadiazacyclopentadecin-6-yl)carbamate] | 8.30 to 9.00 | 9.00 to 9.29 |  |  |
| C[C@@H]1CC/C=C\[C@@H]2C[C@@]2(C(=O)NS(=O)(=O)C2(C)CC2)NC(=O)[C@@H]2C[C@@H](Oc3nc4c(c5ccccc35)CCCO4)CN2C(=O)[C@@H](NC(=O)OC(C)(C)C(C)(F)F)[C@H](C)O1 [Compound 2303, 3,3-difluoro-2-methylbutan-2-yl ((2R,6S,7S,9R,13aS,14aR,16aS,Z)-2-((2,3-dihydro-1H-pyrano[2,3-c]isoquinolin-6-yl)oxy)-7,9-dimethyl-14a-(((1-methylcyclopropyl)sulfonyl)carbamoyl)-5,16-dioxo-2,3,5,6,7,9,10,11,13a,14,14a,15,16,16a-tetradecahydro-1H-cyclopropa[i]pyrrolo[1,2-e][1,5,8]oxadiazacyclopentadecin-6-yl)carbamate] | 9.00 to 9.29 | 9.00 to 9.29 |  |  |
| COc1cc2ccnc(O[C@@H]3C[C@H]4C(=O)N[C@]5(C(=O)NS(=O)(=O)C6(C)CC6)C[C@H]5/C=C\CC[C@@H](C)O[C@@H](C)[C@H](NC(=O)OC(C)(C)C(F)(F)F)C(=O)N4C3)c2cc1F [Compound 2005, 1,1,1-trifluoro-2-methylpropan-2-yl ((2R,6S,7S,9R,13aS,14aR,16aS,Z)-2-((7-fluoro-6-methoxyisoquinolin-1-yl)oxy)-7,9-dimethyl-14a-(((1-methylcyclopropyl)sulfonyl)carbamoyl)-5,16-dioxo-2,3,5,6,7,9,10,11,13a,14,14a,15,16,16a-tetradecahydro-1H-cyclopropa[i]pyrrolo[1,2-e][1,5,8]oxadiazacyclopentadecin-6-yl)carbamate] | 8.30 to 9.00 | 9.30 to 10.00 |  |  |
| CC[C@@H]1O[C@H](C)CC/C=C\[C@@H]2C[C@@]2(C(=O)NS(=O)(=O)C2(C)CC2)NC(=O)[C@@H]2C[C@@H](Oc3nc4cc(OC)ccc4nc3C(F)(F)F)CN2C(=O)[C@H]1NC(=O)OC(C)(C)C(C)(F)F [Compound 1016, 3,3-difluoro-2-methylbutan-2-yl ((2R,6S,7S,9R,13aS,14aR,16aS,Z)-7-ethyl-2-((7-methoxy-3-(trifluoromethyl)quinoxalin-2-yl)oxy)-9-methyl-14a-(((1-methylcyclopropyl)sulfonyl)carbamoyl)-5,16-dioxo-2,3,5,6,7,9,10,11,13a,14,14a,15,16,16a-tetradecahydro-1H-cyclopropa[i]pyrrolo[1,2-e][1,5,8]oxadiazacyclopentadecin-6-yl)carbamate] | 9.30 to 10.00 | 9.30 to 10.00 |  |  |
| COc1ccc2c(O[C@@H]3C[C@H]4C(=O)N[C@]5(C(=O)NS(=O)(=O)C6(C)CC6)C[C@H]5/C=C\CC[C@@H](C)O[C@@H](C)[C@H](NC(=O)OC(C)(C)C(F)F)C(=O)N4C3)nc3c(c2c1)CCCO3 [Compound 2310, 1,1-difluoro-2-methylpropan-2-yl ((2R,6S,7S,9R,13aS,14aR,16aS,Z)-2-((9-methoxy-2,3-dihydro-1H-pyrano[2,3-c]isoquinolin-6-yl)oxy)-7,9-dimethyl-14a-(((1-methylcyclopropyl)sulfonyl)carbamoyl)-5,16-dioxo-2,3,5,6,7,9,10,11,13a,14,14a,15,16,16a-tetradecahydro-1H-cyclopropa[i]pyrrolo[1,2-e][1,5,8]oxadiazacyclopentadecin-6-yl)carbamate] | 9.30 to 10.00 | 9.30 to 10.00 |  |  |
| CC[C@@H]1O[C@H](C)CC/C=C\[C@@H]2C[C@@]2(C(=O)NS(=O)(=O)C2(C)CC2)NC(=O)[C@@H]2C[C@@H](Oc3nccc4c5c(ccc34)OCCO5)CN2C(=O)[C@H]1NC(=O)OC(C)(C)C(F)(F)F [Compound 2610, 1,1,1-trifluoro-2-methylpropan-2-yl ((2R,6S,7S,9R,13aS,14aR,16aS,Z)-2-((2,3-dihydro-[1,4]dioxino[2,3-f]isoquinolin-7-yl)oxy)-7-ethyl-9-methyl-14a-(((1-methylcyclopropyl)sulfonyl)carbamoyl)-5,16-dioxo-2,3,5,6,7,9,10,11,13a,14,14a,15,16,16a-tetradecahydro-1H-cyclopropa[i]pyrrolo[1,2-e][1,5,8]oxadiazacyclopentadecin-6-yl)carbamate] | 8.30 to 9.00 | 9.00 to 9.29 |  |  |
| COc1cc(F)cc2c(O[C@@H]3C[C@H]4C(=O)N[C@]5(C(=O)NS(=O)(=O)C6(C)CC6)C[C@H]5/C=C\CC[C@@H](C)O[C@@H](C)[C@H](NC(=O)OC(C)(C)C(F)(F)F)C(=O)N4C3)nccc12 [Compound 2017, 1,1,1-trifluoro-2-methylpropan-2-yl ((2R,6S,7S,9R,13aS,14aR,16aS,Z)-2-((7-fluoro-5-methoxyisoquinolin-1-yl)oxy)-7,9-dimethyl-14a-(((1-methylcyclopropyl)sulfonyl)carbamoyl)-5,16-dioxo-2,3,5,6,7,9,10,11,13a,14,14a,15,16,16a-tetradecahydro-1H-cyclopropa[i]pyrrolo[1,2-e][1,5,8]oxadiazacyclopentadecin-6-yl)carbamate] | 9.00 to 9.29 | 9.30 to 10.00 | 9.05 | 9.38 |
| COc1ccc2c(O[C@@H]3C[C@H]4C(=O)N[C@]5(C(=O)NS(=O)(=O)C6CC6)C[C@H]5/C=C\CO[C@@H](C)C[C@@H](C)[C@H](NC(=O)OC(C)(C)C(F)(F)F)C(=O)N4C3)nccc2c1 [Compound 2604, 1,1,1-trifluoro-2-methylpropan-2-yl ((2R,6S,7R,9S,13aS,14aR,16aS,Z)-14a-((cyclopropylsulfonyl)carbamoyl)-2-((6-methoxyisoquinolin-1-yl)oxy)-7,9-dimethyl-5,16-dioxo-2,3,5,6,7,8,9,11,13a,14,14a,15,16,16a-tetradecahydro-1H-cyclopropa[e]pyrrolo[2,1-i][1,7,10]oxadiazacyclopentadecin-6-yl)carbamate] | 7.46 to 8.30 | 8.30 to 9.00 |  |  |
| C[C@@H]1CC/C=C\[C@@H]2C[C@@]2(C(=O)NS(=O)(=O)C2(C)CC2)NC(=O)[C@@H]2C[C@@H](Oc3nccc4c5c(ccc34)OCCO5)CN2C(=O)[C@@H](NC(=O)OC(C)(C)C(C)(F)F)[C@H](C)O1 [Compound 2010, 3,3-difluoro-2-methylbutan-2-yl ((2R,6S,7S,9R,13aS,14aR,16aS,Z)-2-((2,3-dihydro[1,4]dioxino[2,3-f]isoquinolin-7-yl)oxy)-7,9-dimethyl-14a-(((1-methylcyclopropyl)sulfonyl)carbamoyl)-5,16-dioxo-2,3,5,6,7,9,10,11,13a,14,14a,15,16,16a-tetradecahydro-1H-cyclopropa[i]pyrrolo[1,2-e][1,5,8]oxadiazacyclopentadecin-6-yl)carbamate] | 8.30 to 9.00 | 9.00 to 9.29 |  |  |
| COc1ccc2c(O[C@@H]3C[C@H]4C(=O)N[C@]5(C(=O)NS(=O)(=O)C6(C)CC6)C[C@H]5/C=C\CC[C@@H](C)O[C@@H](C)[C@H](NC(=O)OC(C)(C)C(F)(F)F)C(=O)N4C3)nc(-c3ccc(OC(C)C)cn3)cc2c1 [Compound 2011, 1,1,1-trifluoro-2-methylpropan-2-yl ((2R,6S,7S,9R,13a5,14aR,16aS,Z)-2-((3-(5-isopropoxypyridin-2-yl)-6-methoxyisoquinolin-1-yl)oxy)-7,9-dimethyl-14a-(((1-methylcyclopropyl)sulfonyl)carbamoyl)-5,16-dioxo-2,3,5,6,7,9,10,11,13a,14,14a,15,16,16a-tetradecahydro-1H-cyclopropa[i]pyrrolo[1,2-e][1,5,8]oxadiazacyclopentadecin-6-yl)carbamate] | 9.00 to 9.29 | 9.30 to 10.00 |  |  |
